Data taken from PubChem BioAssay (NCI).
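The concentration for 50% growth inhibition is given as GI50. TGI: concentration producing complete growth inhibition.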

Key:
Experiment in all cases: inhibition of tumour cell growth, NCI panel, 384-well format
COLO 205 colon = test system: COLO 205 colon
ACHN renal = test system: ACHN renal
DU-145 prostate = test system: DU-145 prostate
IGROV1 ovarian = test system: IGROV1 ovarian
KM12 colon = test system: KM12 colon
SK-MEL-28 melanoma = test system: SK-MEL-28 melanoma
NCI/ADR-RES ovarian = test system: NCI/ADR-RES ovarian
EKVX NSCLC = test system: EKVX NSCLC
HCT-116 colon = test system: HCT-116 colon
HT29 colon = test system: HT29 colon
HOP-62 NSCLC = test system: HOP-62 NSCLC
MDA-MB-231 breast = test system: MDA-MB-231 breast
SN12C renal = test system: SN12C renal
CAKI-1 renal = test system: CAKI-1 renal
SF-268 CNS = test system: SF-268 CNS
U251 glioblastoma = test system: U251 glioblastoma
SNB-75 CNS = test system: SNB-75 CNS
SK-OV-3 ovarian = test system: SK-OV-3 ovarian
LOX IMVI melanoma = test system: LOX IMVI melanoma
CCRF-CEM leukemia = test system: CCRF-CEM leukemia
SK-MEL-5 melanoma = test system: SK-MEL-5 melanoma
HOP-92 NSCLC = test system: HOP-92 NSCLC
NCI-H23 lung = test system: NCI-H23 lung
HCT-15 colon = test system: HCT-15 colon
OVCAR-4 ovarian = test system: OVCAR-4 ovarian
RXF 393 renal = test system: RXF 393 renal
786-0 renal = test system: 786-0 renal
HCC-2998 colon = test system: HCC-2998 colon
A498 renal = test system: A498 renal
T-47D breast = test system: T-47D breast
SNB-19 CNS = test system: SNB-19 CNS
A549 NSCLC = test system: A549 NSCLC
HL-60(TB) leukemia = test system: HL-60(TB) leukemia
SW-620 colon = test system: SW-620 colon
SF-539 CNS = test system: SF-539 CNS
MALME-3M melanoma = test system: MALME-3M melanoma
SF-295 CNS = test system: SF-295 CNS
MOLT-4 leukemia = test system: MOLT-4 leukemia
NCI-H322M lung = test system: NCI-H322M lung
MCF7 breast = test system: MCF7 breast
RPMI-8226 leukemia = test system: RPMI-8226 leukemia
OVCAR-5 ovarian = test system: OVCAR-5 ovarian
TK-10 renal = test system: TK-10 renal
HS 578T breast = test system: HS 578T breast
M14 melanoma = test system: M14 melanoma
OVCAR-8 ovarian = test system: OVCAR-8 ovarian
NCI-H522 lung = test system: NCI-H522 lung
MDA-MB-435 melanoma = test system: MDA-MB-435 melanoma
BT-549 breast = test system: BT-549 breast
MDA-MB-468 breast = test system: MDA-MB-468 breast
UACC-257 melanoma = test system: UACC-257 melanoma
OVCAR-3 ovarian = test system: OVCAR-3 ovarian
PC-3 prostate = test system: PC-3 prostate
NCI-H460 NSCLC = test system: NCI-H460 NSCLC
SR leukemia = test system: SR leukemia
K-562 leukemia = test system: K-562 leukemia
UO-31 renal = test system: UO-31 renal
NCI-H226 lung = test system: NCI-H226 lung

## CCC[C@H](Nc1nc(-c2ccc(NC(=O)NCC)c(OC)c2)ncc1C)c1cccnc1
COLO 205 colon
  GI50: 19.3 nM
  TGI: 41.7 nM
ACHN renal
  GI50: 55 nM
  TGI: 15600 nM
DU-145 prostate
  GI50: 30.7 nM
  TGI: 91.6 nM
IGROV1 ovarian
  GI50: 40.4 nM
  TGI: 12400 nM
KM12 colon
  GI50: 26.4 nM
  TGI: 1180 nM
SK-MEL-28 melanoma
  GI50: 95.6 nM
  TGI: 16200 nM
NCI/ADR-RES ovarian
  GI50: 170 nM
  TGI: 426 nM
EKVX NSCLC
  GI50: 43 nM
  TGI: 13300 nM
HCT-116 colon
  GI50: 26.3 nM
  TGI: 74.5 nM
HT29 colon
  GI50: 28.9 nM
  TGI: 12600 nM
HOP-62 NSCLC
  GI50: 33.1 nM
  TGI: 1180 nM
MDA-MB-231 breast
  GI50: 45.2 nM
  TGI: 17400 nM
SN12C renal
  GI50: 37.9 nM
  TGI: 10500 nM
CAKI-1 renal
  GI50: 30 nM
  TGI: 14800 nM
SF-268 CNS
  GI50: 27.3 nM
  TGI: 169 nM
U251 glioblastoma
  GI50: 25 nM
  TGI: 64.6 nM
SNB-75 CNS
  GI50: 33.4 nM
  TGI: 11300 nM
SK-OV-3 ovarian
  GI50: 34.8 nM
  TGI: 1500 nM
LOX IMVI melanoma
  GI50: 25.6 nM
  TGI: 67 nM
CCRF-CEM leukemia
  GI50: 20 nM
  TGI: 34.5 nM
SK-MEL-5 melanoma
  GI50: 17.5 nM
  TGI: 36.5 nM
HOP-92 NSCLC
  GI50: 30.4 nM
  TGI: 650 nM
NCI-H23 lung
  GI50: 20.7 nM
  TGI: 51.6 nM
HCT-15 colon
  GI50: 24 nM
  TGI: 68.3 nM
OVCAR-4 ovarian
  GI50: 48.6 nM
  TGI: 8480 nM
RXF 393 renal
  GI50: 16.4 nM
  TGI: 40.6 nM
786-0 renal
  GI50: 31.7 nM
  TGI: 97.5 nM
HCC-2998 colon
  GI50: 22.9 nM
  TGI: 63 nM
A498 renal
  GI50: 32.1 nM
  TGI: 479 nM
T-47D breast
  GI50: 71.9 nM
  TGI: 14400 nM
SNB-19 CNS
  GI50: 35.3 nM
  TGI: 10300 nM
A549 NSCLC
  GI50: 43.4 nM
  TGI: 17400 nM
HL-60(TB) leukemia
  GI50: 16.5 nM
  TGI: 30.4 nM
SW-620 colon
  GI50: 43.4 nM
  TGI: 16500 nM
SF-539 CNS
  GI50: 18.3 nM
  TGI: 36.5 nM
MALME-3M melanoma
  GI50: 32 nM
  TGI: 15000 nM
SF-295 CNS
  GI50: 18.5 nM
  TGI: 43.1 nM
MOLT-4 leukemia
  GI50: 19.7 nM
  TGI: 34.2 nM
NCI-H322M lung
  GI50: 40.8 nM
  TGI: 20600 nM
MCF7 breast
  GI50: 29.6 nM
  TGI: 1360 nM
RPMI-8226 leukemia
  GI50: 18.2 nM
  TGI: 32.8 nM
OVCAR-5 ovarian
  GI50: 798 nM
  TGI: 84800 nM
TK-10 renal
  GI50: 47.3 nM
  TGI: 16700 nM
HS 578T breast
  GI50: 18.7 nM
  TGI: 37.3 nM
M14 melanoma
  GI50: 21.8 nM
  TGI: 63.6 nM
OVCAR-8 ovarian
  GI50: 21.1 nM
  TGI: 49.2 nM
NCI-H522 lung
  GI50: 17.6 nM
  TGI: 37.8 nM
MDA-MB-435 melanoma
  GI50: 19.1 nM
  TGI: 38.2 nM
BT-549 breast
  GI50: 22.7 nM
  TGI: 59 nM
MDA-MB-468 breast
  GI50: 16.8 nM
  TGI: 33.4 nM
UACC-257 melanoma
  GI50: 74.5 nM
  TGI: 16400 nM
OVCAR-3 ovarian
  GI50: 19.5 nM
  TGI: 43 nM
PC-3 prostate
  GI50: 38.5 nM
  TGI: 16500 nM
NCI-H460 NSCLC
  GI50: 17.8 nM
  TGI: 35.4 nM
SR leukemia
  TGI: 16.1 nM
K-562 leukemia
  GI50: 20.3 nM
  TGI: 39.6 nM
UO-31 renal
  GI50: 62.8 nM
  TGI: 15300 nM
NCI-H226 lung
  GI50: 26.9 nM
  TGI: 75.3 nM
